From BindingDB's records for doi:10.1021/jm00011a020 (H. Lundbeck, 1995)

These compounds were tested against Sigma-2 receptor (TMEM97) (Rattus norvegicus) (assay: Binding affinity towards Sigma receptor site 2 in rat brain using [3H]DTG as radioligand).

Row | Compound | IC50 [nM]
1 | Fc1ccc(-n2cc(CCCCN3CCC4(CCOc5ccccc54)CC3)c3ccccc32)cc1 [1'-{4-[1-(4-fluorophenyl)-1H-3-indolyl]butyl}spiro[3,4-dihydro-2H-chromene-4,4'-(hexahydropyridine)]] | 3
2 | Fc1ccc(-n2cc(CCCCN3CCC4(CC3)Cc3ccccc3CO4)c3ccccc32)cc1 [1'-{4-[1-(4-fluorophenyl)-1H-3-indolyl]butyl}spiro[3,4-dihydro-1H-isochromene-3,4'-(hexahydropyridine)]] | 1.1
3 | Fc1ccc(-n2cc(CCCCN3CCC4(CC3)OCCc3ccccc34)c3ccccc32)cc1 [1'-{4-[1-(4-fluorophenyl)-1H-3-indolyl]butyl}spiro[3,4-dihydro-1H-isochromene-1,4'-(hexahydropyridine)]] | 0.9
4 | c1ccc2c(c1)COC21CCN(CCCCC2CCCCC2)CC1 [1'-(cyclohexylbutyl)-3H-spiro[2-benzofuran-1,4'-piperidine]] | 0.07
5 | Fc1ccc(-n2cc(CCCCN3CCC4(CC3)OCc3c(C(F)(F)F)cccc34)c3ccccc32)cc1 [1'-{4-[1-(4-fluorophenyl)-1H-3-indolyl]butyl}-4-trifluoromethylspiro[1,3-dihydroisobenzofuran-1,4'-(hexahydropyridine)]] | 2.6
6 | Fc1ccc(-n2cc(CCCCN3CCC4(CC3)COc3ccccc3C4)c3ccccc32)cc1 [1'-{4-[1-(4-fluorophenyl)-1H-3-indolyl]butyl}spiro[3,4-dihydro-2H-chromene-3,4'-(hexahydropyridine)]] | 250
7 | Fc1ccc(-n2cc(CCCCN3CCC4(CC3)SCc3ccccc34)c3ccccc32)cc1 [1'-{4-[1-(4-fluorophenyl)-1H-3-indolyl]butyl}spiro[1,3-dihydrobenzo[c]thiophene-1,4'-(hexahydropyridine)]] | 0.14
8 | Fc1ccc(-n2cc(CCCCN3CCC4(CC3)OCc3c(F)cccc34)c3ccccc32)cc1 [1-[1-(4-fluorophenyl)-1H-3-indolyl]-4-[4-fluorospiro[1,3-dihydroisobenzofuran-1,4'-(hexahydropyridine)]-1-yl]butane] | 1.8
9 | c1ccc2c(c1)COC21CCN(CCCOC2CCCCC2)CC1 [1'-(3-cyclohexyloxypropyl)-3H-spiro[2-benzofuran-1,4'-piperidine]] | 0.07
10 | Fc1ccc(-n2cc(CCCCN3CCC4(CC3)COCc3ccccc34)c3ccccc32)cc1 [1'-{4-[1-(4-fluorophenyl)-1H-3-indolyl]butyl}spiro[3,4-dihydro-1H-isochromene-4,4'-(hexahydropyridine)]] | 0.34
11 | Fc1ccc(-n2cc(CCCCN3CCC4(CC3)COc3ccccc34)c3ccccc32)cc1 [1'-{4-[1-(4-fluorophenyl)-1H-3-indolyl]butyl}spiro[2,3-dihydrobenzo[b]furan-3,4'-(hexahydropyridine)]] | 12
12 | Fc1ccc(-n2cc(CCCCN3CCC4(CC3)OCc3cccc(F)c34)c3ccccc32)cc1 [1-[1-(4-fluorophenyl)-1H-3-indolyl]-4-[7-fluorospiro[1,3-dihydroisobenzofuran-1,4'-(hexahydropyridine)]-1-yl]butane] | 0.58
13 | c1ccc(CCN2CCC3(CC2)OCc2ccccc23)cc1 [1'-(2-phenylethyl)-3H-spiro[2-benzofuran-1,4'-piperidine]] | 2.9
14 | Fc1ccc(-n2cc(CCCCN3CCC4(CC3)Oc3ccccc3O4)c3ccccc32)cc1 [1'-{4-[1-(4-fluorophenyl)-1H-3-indolyl]butyl}spiro[benzo[d][1,3]dioxole-2,4'-(hexahydropyridine)]] | 270
15 | Fc1ccc(-n2cc(CCCCN3CCC4(CC3)Cc3ccccc3O4)c3ccccc32)cc1 [1'-{4-[1-(4-fluorophenyl)-1H-3-indolyl]butyl}spiro[2,3-dihydrobenzo[b]furan-2,4'-(hexahydropyridine)]] | 340
